{
  "source": "patent US8486962B2",
  "about": "“Antifungal agents” (F2G Ltd., priority 2005, dated 2013)",
  "key": {"Aspergillus terreus": {"tested_on": "Aspergillus terreus", "test": "MIC, YAG medium, Aspergillus terreus", "assay_type": "cell-based", "details": "YAG medium; for MIC: Aspergillus terreus, read-out: MIC A Terreus 4", "summary_of_the_method": "(§1)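 OD at 485 nm versus drug-free control defines MIC (mg/L): >80% inhibition for Candida albicans in RPMI/2% glucose/MOPS pH7.0 after 24-48 hrs at 35° C, >70% for Aspergillus strains in YAG medium after 24 hrs at 35° C. Spore inocula 1-2×10^4 cfu/ml; yeast 1-2×10^3 cfu/ml.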"}, "[1]": {"tested_on": "Aspergillus fumigatus AF210", "test": "MIC, YAG medium, Aspergillus fumigatus AF210", "assay_type": "cell-based", "details": "YAG medium; for MIC: Aspergillus fumigatus, AF210, read-out: MIC A Fum. 210", "summary_of_the_method": "as §1"}, "[2]": {"tested_on": "Aspergillus fumigatus AF293", "test": "MIC, YAG medium, Aspergillus fumigatus AF293", "assay_type": "cell-based", "details": "YAG medium; for MIC: Aspergillus fumigatus, AF293, read-out: MIC A Fum. 293", "summary_of_the_method": "as §1"}, "Aspergillus niger": {"tested_on": "Aspergillus niger", "test": "MIC, YAG medium, Aspergillus niger", "assay_type": "cell-based", "details": "YAG medium; for MIC: Aspergillus niger, read-out: MIC A Niger 1", "summary_of_the_method": "as §1"}, "A Terreus 49": {"tested_on": "A Terreus 49", "test": "MIC, YAG medium, A Terreus 49", "assay_type": "cell-based, Aspergillus terreus", "details": "YAG medium; for MIC: Aspergillus terreus, read-out: MIC A Terreus 49", "description": "Measurement of Minimum Inhibitory Concentrations (MICs)\nBetween 1 and 5 mgs of compound were accurately weighed out into a sterile Eppendorf tube. The compound was dissolved in DMSO to give a solution containing 5 mg/ml. Tubes were stored at −20° C. until required.\nOn the day of testing thawed solutions were vortex mixed to ensure homogeneity. 30 μl of solution was removed and added to 570 μl of sterile water in a separate sterile Eppendorf. The thoroughly mixed solution was used to prepare a series of doubling dilutions in water, in a deep well plate. Eleven replicate plates were prepared using a Minitrak by aspirating 20 μl from each well into eleven clear polystyrene 96 well plates.\nSpores of Aspergillus spp (Aspergillus fumigatus, Aspergillus terreus, Aspergillus niger and Aspergillus flavus) were harvested from cultures grown on Sabarauds agar for 5 days, and resuspended in PBS/Tween 80 to approx 1×10^7 cfu/ml Other filamentous fungi (Fusarium solani, Scedosporium spp., Trichophyton spp., Absidia corymbifera), were grown on Sabarauds agar for 2-10 days and spores/hyphae resuspended in PBS/Tween to give approx 1×10^7 cfU/ml. Candida species (Candida albicans, Candida glabrata, Candida krusei, Candida parapsilosis and Candida tropicalis) were grown on Sabarauds agar, cells were harvested from the agar using a sterile loop and resuspended in PBS/Tween 80 to approx 1×10^6 cfu/ml. Each organism suspension was diluted in RPMI medium, containing 2% glucose and 0.135M MOPS buffer (pH7.0) to 2×10^4 cfu/ml for Aspergillus spp and other filamentous fungi and 2×10^3 cfu/ml for yeast. 80 μl of an organism suspension was added to each well of the plate containing drug dilutions.\nThis produced MIC plates with a drug range 50-0.05 mg/L and organism inocula of 1-2×10^4 cfu/ml for Aspergillus spp and other filamentous fungi and 1-2×10^3 cfu/ml for yeasts. All plates were incubated for 24-48 hrs at 35° C. Growth was assessed by monitoring the optical density at 485 nm for each well. The MIC of a compound is the lowest drug concentration that inhibits growth of an organism by >80% compared with a drug free control. MICs are recorded as mg/L. Other growth media can be used for susceptibility testing, and the activity of the described compounds can also be assessed in a medium comprising, 1% glucose, 1% ammonium chloride and 0.5% yeast extract (YAG medium). To perform MIC tests in this medium, dilutions of compounds are prepared in microtitre plates as described above. Fungal strains to be tested are grown and harvested in an identical manner to that described above, each organism suspension is then diluted in YAG medium to 2×10^4 cfu/ml for Aspergillus spp and other filamentous fungi and 2×10^3 cfu/ml for yeast. 80 μl of an organism suspension was added to each well of the plate containing drug dilutions. This produced MIC plates with a drug range 50-0.05 mg/L and organism inocula of 1-2×10^4 cfu/ml for Aspergillus spp and other filamentous fungi and 1-2×10^3 cfu/ml for yeasts. All plates were incubated for 24 hrs at 35° C. Growth was assessed by monitoring the optical density at 485 nm for each well. The MIC of a compound is the lowest drug concentration that inhibits growth of an organism by >70% compared with a drug free control. MICs are recorded as mg/L. In cases where the MIC of an organism is […]0.05 mg/L the MIC is repeated using a concentration range of 0.5-0.0005 mg/L. MIC tests in YAG medium have more clear-cut endpoints and have slightly lower MICS than those performed in RPMI medium.\nThe following organisms were tested: Aspergillus fumigatus AF293 and Aspergillus fumigatus AF210, Aspergillus niger, Aspergillus terreus, Aspergillus favus, Candida albicans, Candida krusei, Candida tropicalis, Candida glabrata, Candida parapsilosis, Trichophyton rubrum, Trichophyton mentagrophytes, Scedosporium prolificans, Scedosporium apiospermum, Absidia corymbifera, Fusarium solani."}, "Aspergillus flavus": {"tested_on": "Aspergillus flavus", "test": "MIC, YAG medium, Aspergillus flavus", "assay_type": "cell-based", "details": "YAG medium; for MIC: Aspergillus flavus, read-out: MIC A Flavus 01", "summary_of_the_method": "as §1"}},
  "data": [
    {"compound": "2-Oxo-2-(2-pyridin-3-yl-indolizin-3-yl)-N-(3-trifluoromethyl-phenyl)-acetamide [Example 223]", "values": [
      {"measurement": "MIC A Terreus 4", "setting": "Aspergillus terreus", "result": 0.12, "unit": "µg/mL"},
      {"measurement": "MIC A Fum. 210", "setting": "[1]", "result": 0.25, "unit": "µg/mL"},
      {"measurement": "MIC A Fum. 293", "setting": "[2]", "result": 0.5, "unit": "µg/mL"},
      {"measurement": "MIC A Niger 1", "setting": "Aspergillus niger", "result": 0.5, "unit": "µg/mL"},
      {"measurement": "MIC A Terreus 49", "setting": "A Terreus 49", "result": 0.031, "unit": "µg/mL"},
      {"measurement": "MIC A Flavus 01", "setting": "Aspergillus flavus", "result": 0.062, "unit": "µg/mL"}
    ]},
    {"compound": "CON=C(C)c1ccc(NC(=O)C(=O)c2c(-c3ccccc3)cc3ccccn23)cc1", "note": "(mixture of isomers) [Example 243, N-(4-{1-[(E/Z)-Methoxyimino]-ethyl}-phenyl)-2-oxo-2-(2-phenyl-indolizin-3-yl)-acetamide]", "values": [
      {"measurement": "MIC A Terreus 4", "setting": "Aspergillus terreus", "result": 0.008, "unit": "µg/mL"},
      {"measurement": "MIC A Fum. 210", "setting": "[1]", "result": 0.12, "unit": "µg/mL"},
      {"measurement": "MIC A Fum. 293", "setting": "[2]", "result": 0.062, "unit": "µg/mL"},
      {"measurement": "MIC A Niger 1", "setting": "Aspergillus niger", "result": 0.015, "unit": "µg/mL"},
      {"measurement": "MIC A Terreus 49", "setting": "A Terreus 49", "result": 0.004, "unit": "µg/mL"},
      {"measurement": "MIC A Flavus 01", "setting": "Aspergillus flavus", "result": 0.015, "unit": "µg/mL"}
    ]},
    {"compound": "CC(=NO)c1ccc(NC(=O)C(=O)c2c(-c3ccccc3)cc3ccccn23)cc1", "note": "(mixture of isomers) [Example 250, N-(4-{1-[(E/Z)-Hydroxyimino]-ethyl}-phenyl)-2-oxo-2-(2-phenyl-indolizin-3-yl)-acetamide]", "values": [
      {"measurement": "MIC A Terreus 4", "setting": "Aspergillus terreus", "result": 0.1, "unit": "µg/mL"},
      {"measurement": "MIC A Fum. 210", "setting": "[1]", "result": 0.8, "unit": "µg/mL"},
      {"measurement": "MIC A Fum. 293", "setting": "[2]", "result": 0.2, "unit": "µg/mL"},
      {"measurement": "MIC A Niger 1", "setting": "Aspergillus niger", "result": 0.05, "unit": "µg/mL"},
      {"measurement": "MIC A Terreus 49", "setting": "A Terreus 49", "result": 0.05, "unit": "µg/mL"},
      {"measurement": "MIC A Flavus 01", "setting": "Aspergillus flavus", "result": 0.1, "unit": "µg/mL"}
    ]},
    {"compound": "COc1ccc(NC(=O)C(=NOCCN(C)C)c2c(-c3ccccc3)cc3ccccn23)cc1", "note": "(mixture of isomers) [Example 295, 2-[(E/Z)-2-Dimethylamino-ethoxyimino]-N-(4-methoxy-phenyl)-2-(2-phenyl-indolizin-3-yl)-acetamide]", "values": [
      {"measurement": "MIC A Terreus 4", "setting": "Aspergillus terreus", "result": 6.25, "unit": "µg/mL"},
      {"measurement": "MIC A Fum. 210", "setting": "[1]", "result": 50, "unit": "µg/mL"},
      {"measurement": "MIC A Fum. 293", "setting": "[2]", "result": ">50", "unit": "µg/mL"},
      {"measurement": "MIC A Niger 1", "setting": "Aspergillus niger", "result": 25, "unit": "µg/mL"},
      {"measurement": "MIC A Terreus 49", "setting": "A Terreus 49", "result": 6.25, "unit": "µg/mL"},
      {"measurement": "MIC A Flavus 01", "setting": "Aspergillus flavus", "result": 12.5, "unit": "µg/mL"}
    ]},
    {"compound": "COc1ccc(NC(=O)C(=NOCCCN(C)C)c2c(-c3ccccc3)cc3ccccn23)cc1", "note": "(mixture of isomers) [Example 296, 2-[(E/Z)-3-Dimethylamino-propoxyimino]-N-(4-methoxy-phenyl)-2-(2-phenyl-indolizin-3-yl)-acetamide]", "values": [
      {"measurement": "MIC A Terreus 4", "setting": "Aspergillus terreus", "result": 6.25, "unit": "µg/mL"},
      {"measurement": "MIC A Fum. 210", "setting": "[1]", "result": ">50", "unit": "µg/mL"},
      {"measurement": "MIC A Fum. 293", "setting": "[2]", "result": ">50", "unit": "µg/mL"},
      {"measurement": "MIC A Niger 1", "setting": "Aspergillus niger", "result": 25, "unit": "µg/mL"},
      {"measurement": "MIC A Terreus 49", "setting": "A Terreus 49", "result": 6.25, "unit": "µg/mL"},
      {"measurement": "MIC A Flavus 01", "setting": "Aspergillus flavus", "result": 12.5, "unit": "µg/mL"}
    ]},
    {"compound": "COc1ccc(NC(=O)C(=NOCCCC(=O)O)c2c(-c3ccccc3)cc3ccccn23)cc1", "note": "(mixture of isomers) [Example 297, 4-[1-(4-Methoxy-phenylcarbamoyl)-1-(2-phenyl-indolizin-3-yl)-meth-(E/Z)-ylideneaminooxy]-butyric acid]", "values": [
      {"measurement": "MIC A Terreus 4", "setting": "Aspergillus terreus", "result": 0.8, "unit": "µg/mL"},
      {"measurement": "MIC A Fum. 210", "setting": "[1]", "result": 12.5, "unit": "µg/mL"},
      {"measurement": "MIC A Fum. 293", "setting": "[2]", "result": 12.5, "unit": "µg/mL"},
      {"measurement": "MIC A Niger 1", "setting": "Aspergillus niger", "result": 1.6, "unit": "µg/mL"},
      {"measurement": "MIC A Terreus 49", "setting": "A Terreus 49", "result": 0.4, "unit": "µg/mL"},
      {"measurement": "MIC A Flavus 01", "setting": "Aspergillus flavus", "result": 0.4, "unit": "µg/mL"}
    ]},
    {"compound": "Cc1ccc(NC(=O)C(=O)c2c(-c3ccccc3)cc3ccccn23)cc1", "note": "[Example 135, 2-Oxo-2-(2-phenyl-indolizin-3-yl)-N-p-tolyl-acetamide]", "values": [
      {"measurement": "MIC", "setting": "Aspergillus terreus", "result": 0.008, "unit": "µg/mL"},
      {"measurement": "MIC", "setting": "[1]", "result": 0.062, "unit": "µg/mL"},
      {"measurement": "MIC", "setting": "[2]", "result": 0.12, "unit": "µg/mL"},
      {"measurement": "MIC", "setting": "Aspergillus niger", "result": 0.015, "unit": "µg/mL"},
      {"measurement": "MIC", "setting": "A Terreus 49", "result": 0.002, "unit": "µg/mL"},
      {"measurement": "MIC", "setting": "Aspergillus flavus", "result": 0.015, "unit": "µg/mL"}
    ]},
    {"compound": "O=C(Nc1ccccc1)C(=O)c1c(-c2ccccc2)cc2ccccn12", "note": "[Example 136, 2-Oxo-N-phenyl-2-(2-phenyl-indolizin-3-yl)-acetamide]", "values": [
      {"measurement": "MIC", "setting": "Aspergillus terreus", "result": 0.031, "unit": "µg/mL"},
      {"measurement": "MIC", "setting": "[1]", "result": 0.12, "unit": "µg/mL"},
      {"measurement": "MIC", "setting": "[2]", "result": 0.25, "unit": "µg/mL"},
      {"measurement": "MIC", "setting": "Aspergillus niger", "result": 0.031, "unit": "µg/mL"},
      {"measurement": "MIC", "setting": "A Terreus 49", "result": 0.004, "unit": "µg/mL"},
      {"measurement": "MIC", "setting": "Aspergillus flavus", "result": 0.031, "unit": "µg/mL"}
    ]}
  ]
}
